Laboratory results as given in PMC8196580, “Identification of Kaurane-Type Diterpenes as Inhibitors of Leishmania Pteridine Reductase I” (Molecules, 2021).
Like-named read-outs stand apart in the source and are kept apart here.

Tests used:
[1] = test system: L. major; test: ChEMBL dataset of pIC50 values against L. major used for the RF model (Table S1); type: cell-based, Leishmania major; note: call rule not given here
[2] = test system: L. major; design: method as in ChEMBL; settings: ref ChEMBL, cited from earlier work
[3] = Active/Inactive class assigned to ChemBL structures for Random forest model construction (Table S1)
[4] = ChemBL structures with pIC50 values used for Random forest model construction (Table S1)
[5] = Active/Inactive class assigned to the ChEMBL pIC50 value for Random forest model construction, ref ChEMBL
[6] = ChemBL structures with pIC50 values used for Random forest model construction, L. major

| SMILES | Outcome [1, 3] | pIC50 Value [2, 4] | Outcome [1, 5] | pIC50 Value [2, 6] |
| --- | --- | --- | --- | --- |
| O=C(/C=C/C1=Cc2cc(Cl)ccc2OC1)c1ccccc1F [CHEMBL1097964] | Active | 5.65 | – | – |
| O=C(/C=C/C1=Cc2cc(Cl)ccc2OC1)c1ccccc1Cl [CHEMBL1097965] | Active | 5.91 | – | – |
| O=C(/C=C/C1=Cc2cc(Cl)ccc2OC1)c1ccc(Cl)cc1Cl [CHEMBL1097966] | Active | 5.72 | – | – |
| O=[N+]([O-])c1ccc2nc(-c3ccccc3)[nH]c2c1 [CHEMBL1164403] | Active | 5.48 | – | – |
| O=CN/N=C/c1ccccc1O [CHEMBL1172261] | – | – | Inactive | 3.84 |
| C[C@]12CC[C@H](O)C[C@@H]1CC[C@@H]1[C@@H]2CC[C@@]2(C)[C@H]1CC[C@@H]2[C@@](C)(O)c1ccncc1 [CHEMBL1214241] | – | – | Inactive | 4.92 |
| C[C@]12CC[C@H](O)C[C@@H]1CC[C@@H]1[C@@H]2CC[C@@]2(C)[C@H]1CC[C@@H]2[C@@](C)(O)c1ccncc1Cl [CHEMBL1214242] | – | – | Active | 5.10 |
| CCC(=O)N1CCCCC1[C@](C)(O)[C@H]1CC[C@H]2[C@@H]3CC[C@H]4C[C@@H](O)CC[C@]4(C)[C@H]3CC[C@@]21C (stereo partly drawn) [CHEMBL1214310] | – | – | Inactive | 4.27 |
| C[C@]12CC[C@H](O)C[C@@H]1CC[C@@H]1[C@@H]2CC[C@@]2(C)[C@H]1CC[C@@H]2[C@@](C)(O)c1ccccn1 [CHEMBL1214311] | – | – | Inactive | 4.00 |
| C[C@]12CC[C@H](O)C[C@@H]1CC[C@@H]1[C@@H]2CC[C@@]2(C)[C@H]1CC[C@@H]2[C@@](C)(O)c1cccnc1 [CHEMBL1214312] | – | – | Inactive | 4.00 |
| CN1CCN(c2ccnc3cc(Cl)ccc23)CC1 [CHEMBL1255667] | – | – | Inactive | 4.00 |
| c1ccc2c(-c3cnc4n3CCS4)c[nH]c2c1 [CHEMBL1255759] | – | – | Inactive | 4.11 |
| CCc1nnc(N2C(=O)C3C4C=CC(C4)C3C2=O)s1 (stereo not drawn) [CHEMBL1255760] | – | – | Inactive | 4.00 |
| Cc1ccc2c(n1)[nH]c1ccccc12 [CHEMBL1255761] | – | – | Inactive | 4.01 |
| CCOC(=O)C/C(=N/O)c1nnn[nH]1 [CHEMBL1255762] | – | – | Inactive | 4.00 |
| Cc1ccc2nc(CCC3CCCCC3)[nH]c2c1 [CHEMBL1255797] | – | – | Inactive | 4.63 |
| COc1ccc2c(=O)c(C(=O)O)csc2c1 [CHEMBL1255798] | – | – | Inactive | 4.00 |
| Cc1ccc(C(=O)N2CCN(c3ccnc4cc(Cl)ccc34)CC2)cc1 [CHEMBL1256729] | – | – | Inactive | 4.15 |
| CC(C)(C)c1ccc(CN2CCN(c3ccnc4cc(Cl)ccc34)CC2)cc1 [CHEMBL1256730] | – | – | Inactive | 4.21 |
| Clc1ccc2c(N3CCN(Cc4ccccc4)CC3)ccnc2c1 [CHEMBL1256765] | – | – | Inactive | 4.21 |
| Clc1ccc2c(N3CCN(Cc4ccc(-c5ccccc5)cc4)CC3)ccnc2c1 [CHEMBL1256766] | – | – | Inactive | 4.49 |
| COc1ccc(-c2nnc3sc(-c4ccc(F)cc4)nn23)cc1 [CHEMBL1256800] | – | – | Inactive | 4.00 |
| Clc1ccc(C2=NN3C(c4ccccc4)=NNC3S2)c(Cl)c1 (stereo not drawn) [CHEMBL1256801] | – | – | Inactive | 4.00 |
| Cc1ccccc1Cc1nnc2sc(-c3ccc(Cl)cc3)nn12 [CHEMBL1256802] | – | – | Inactive | 4.00 |
| CCCc1cc(-c2nn3c(-c4ccccc4)nnc3s2)n(CC)n1 [CHEMBL1256824] | – | – | Inactive | 4.00 |
| Fc1cccc(Cl)c1Cc1nn2c(-c3ccccc3)nnc2s1 [CHEMBL1256825] | – | – | Inactive | 4.00 |
| CCn1nc(C)cc1-c1nnc2sc(-c3ccc(C)cc3)nn12 [CHEMBL1256826] | – | – | Inactive | 4.05 |

| SMILES | Outcome [1, 3] | pIC50 Value [2, 4] | Outcome [1, 5] | pIC50 Value [2, 6] |
| --- | --- | --- | --- | --- |
| Cc1cc(C)nc(SCc2nn3c(-c4ccccc4)nnc3s2)n1 [CHEMBL1256856] | – | – | Inactive | 4.00 |
| CCn1nc(C)cc1-c1nnc2sc(Cc3c(F)cccc3Cl)nn12 [CHEMBL1256857] | – | – | Inactive | 4.00 |
| Cc1ccc(/C=C2/C(=O)NN(c3ccc(F)cc3)C2=O)o1 [CHEMBL1256858] | – | – | Inactive | 4.04 |
| Cc1ccc(N2NC(=O)/C(=C/c3cc4c(cc3Cl)OCO4)C2=O)cc1C [CHEMBL1256889] | – | – | Inactive | 4.52 |
| COc1ccc(-c2csc3c2C2=NCCN2C=N3)cc1OC [CHEMBL1256890] | – | – | Inactive | 4.00 |
| NP(=O)(OCc1ccccc1[N+](=O)[O-])N(CCCl)CCCl (stereo not drawn) [CHEMBL1256928] | – | – | Inactive | 4.52 |
| COC(=O)c1c(O)c(C#N)c2n(c1=O)CCc1cc(OC)c(OC)cc1-2 [CHEMBL1256930] | – | – | Inactive | 4.28 |
| CN(C)Cc1c(O)ccc2c(=O)c(-c3cnn(-c4ccccc4)c3)coc12 [CHEMBL1256931] | – | – | Inactive | 4.13 |
| NP(=O)(OCc1cccc([N+](=O)[O-])c1)N(CCCl)CCCl (stereo not drawn) [CHEMBL1256964] | – | – | Inactive | 4.52 |
| COc1cc([N+](=O)[O-])ccc1COP(N)(=O)N(CCCl)CCCl (stereo not drawn) [CHEMBL1256965] | – | – | Inactive | 4.81 |
| COc1cc(COP(N)(=O)N(CCCl)CCCl)ccc1[N+](=O)[O-] (stereo not drawn) [CHEMBL1256966] | – | – | Inactive | 4.52 |
| Cc1cc(COP(N)(=O)N(CCCl)CCCl)ccc1[N+](=O)[O-] (stereo not drawn) [CHEMBL1256989] | – | – | Inactive | 4.52 |
| NP(=O)(OCc1ccc([N+](=O)[O-])c(F)c1)N(CCCl)CCCl (stereo not drawn) [CHEMBL1256990] | – | – | Active | 5.04 |
| NP(=O)(OCc1ccc([N+](=O)[O-])cc1F)N(CCCl)CCCl (stereo not drawn) [CHEMBL1256991] | Active | 5.33 | – | – |
| NP(=O)(OCc1ccc([N+](=O)[O-])cc1C(F)(F)F)N(CCCl)CCCl (stereo not drawn) [CHEMBL1257016] | – | – | Active | 5.23 |
| NP(=O)(OCc1ccc([N+](=O)[O-])cc1Cl)N(CCCl)CCCl (stereo not drawn) [CHEMBL1257017] | Active | 5.51 | – | – |
| NP(=O)(OCc1c(F)cc([N+](=O)[O-])cc1F)N(CCCl)CCCl (stereo not drawn) [CHEMBL1257018] | Active | 5.89 | – | – |
| CC1=N[C@H](C)Cc2c(-c3ccc(C(F)(F)F)cc3)ccc(O)c21 [CHEMBL1275619] | – | – | Inactive | 4.00 |
| CC1(C)Cc2c(Br)ccc(O)c2C=N1 [CHEMBL1275726] | – | – | Inactive | 4.00 |
| CC(C)Oc1cc(NC(=N)c2ccccn2)ccc1-c1ccc(-c2ccc(NC(=N)c3ccccn3)cc2OC(C)C)o1 [CHEMBL1275764] | Active | 7.85 | – | – |
| COc1ccc(-c2ccccc2)c2c1C(C)=N[C@H](C)C2 [CHEMBL1275787] | – | – | Inactive | 4.00 |
| CC1=N[C@H](C)Cc2c(-c3ccccc3)ccc(O)c21 [CHEMBL1275788] | – | – | Inactive | 4.00 |
| CC1=N[C@H](C)Cc2c(-c3ccc(C)cc3)ccc(O)c21 [CHEMBL1275822] | – | – | Inactive | 4.07 |
| CC1=N[C@H](C)Cc2c(-c3ccc(Cl)cc3)ccc(O)c21 [CHEMBL1275824] | – | – | Inactive | 4.00 |
| CC1=N[C@H](C)Cc2c(-c3cccc(Cl)c3)ccc(O)c21 [CHEMBL1275866] | – | – | Inactive | 4.28 |
| CC1=C(C(=O)OC(C)C)C(c2cccc([N+](=O)[O-])c2)C(C(=O)OC2CN(C(c3ccccc3)c3ccccc3)C2)=C(N)N1 (stereo not drawn) [CHEMBL1275868] | – | – | Inactive | 4.77 |
| CCOc1cc(NC(=N)c2ccccn2)ccc1-c1ccc(-c2ccc(NC(=N)c3ccccn3)cc2OCC)o1 [CHEMBL1276549] | Active | 7.59 | – | – |
